Test results published in the supplement of paper PMC9663587.

Experiments:
Buparlisib/NVP-BKM120 = compound: Nc1cc(C(F)(F)F)c(-c2cc(N3CCOCC3)nc(N3CCOCC3)n2)cn1 [Buparlisib/NVP-BKM120]
R0-3306 = compound: C1=CC2=C(C=CC(=C2)C=C3C(=O)NC(=NCC4=CC=CS4)S3)N=C1 [R0-3306]
Neratinib/HKI272 = compound: CCOc1cc2ncc(C#N)c(Nc3ccc(OCc4ccccn4)c(Cl)c3)c2cc1NC(=O)/C=C/CN(C)C [Neratinib/HKI272]
senexin b = compound: CN1CCN(C(=O)c2ccc3cc(CCNc4ncnc5ccc(C#N)cc45)ccc3c2)CC1 [senexin b]
AZD2014 = compound: CNC(=O)c1cccc(-c2ccc3c(N4CCOC[C@@H]4C)nc(N4CCOC[C@@H]4C)nc3n2)c1 [AZD2014]
Saracatinib/AZD0530 = compound: CN1CCN(CCOc2cc(OC3CCOCC3)c3c(Nc4c(Cl)ccc5c4OCO5)ncnc3c2)CC1 [Saracatinib/AZD0530]
BSJ-03-123 = compound: CC(=O)c1c(C)c2cnc(Nc3ccc(N4CCN(CCOCCOCCOCCNC(=O)COc5cccc6c5C(=O)N(C5CCC(=O)NC5=O)C6=O)CC4)cn3)nc2n(C2CCCC2)c1=O [BSJ-03-123]
Alpelisib/BYL719 = compound: Cc1nc(NC(=O)N2CCC[C@H]2C(N)=O)sc1-c1ccnc(C(C)(C)C(F)(F)F)c1 [Alpelisib/BYL719]
AZD1775 = compound: C=CCn1c(=O)c2cnc(Nc3ccc(N4CCN(C)CC4)cc3)nc2n1-c1cccc(C(C)(C)O)n1 [AZD1775]
[1] = compound: COc1ccc2c(c1)[C@]1(C[C@H]1c1ccc3c(/C=C/c4ccc(CN5C[C@@H](C)O[C@@H](C)C5)cc4)n[nH]c3c1)C(=O)N2
Dasatinib = compound: Cc1nc(Nc2ncc(C(=O)Nc3c(C)cccc3Cl)s2)cc(N2CCN(CCO)CC2)n1 [Dasatinib]
Ceritinib/LDK378 = compound: Cc1cc(Nc2ncc(Cl)c(Nc3ccccc3S(=O)(=O)C(C)C)n2)c(OC(C)C)cc1C1CCNCC1 [Ceritinib/LDK378]
[2] = compound: CCC1=CN=CN=C1N2CCN(CC2)CC3=NC4=C(N3)C=C(C=C4)C(F)(F)F
SHP099 = compound: CC1(CCN(CC1)C2=CN=C(C(=N2)N)C3=C(C(=CC=C3)Cl)Cl)N [SHP099]
AZD5363 = compound: NC1(C(=O)N[C@@H](CCO)c2ccc(Cl)cc2)CCN(c2nc[nH]c3nccc2-3)CC1 [AZD5363]
Pictilisib/GDC0941 = compound: CS(=O)(=O)N1CCN(Cc2cc3nc(-c4cccc5[nH]ncc45)nc(N4CCOCC4)c3s2)CC1 [Pictilisib/GDC0941]
[3] = compound: CC(=O)c1c(C)c2cnc(Nc3ccc(N4CCNCC4)cn3)nc2n(C2CCCC2)c1=O
AZD7762 = compound: NC(=O)Nc1cc(-c2cccc(F)c2)sc1C(=O)N[C@H]1CCCNC1 [AZD7762]
Volasertib/BI6727 = compound: CC[C@@H]1C(=O)N(C)c2cnc(Nc3ccc(C(=O)N[C@H]4CC[C@H](N5CCN(CC6CC6)CC5)CC4)cc3OC)nc2N1C(C)C [Volasertib/BI6727]
[4] = compound: Cc1nn(C)c(COc2ccc(N3CCN(S(=O)(=O)N(C)C)CC3)cc2)c1-c1cccc2c(CCCOc3cccc4ccccc34)c(C(=O)O)n(CCN3CCOCC3)c12
[5] = compound: CNc1nc(-c2ccc3c(N)n[nH]c3c2)cc(N2C[C@@H](C(=O)NC3CCCCC3)CC[C@H]2C)n1
LEE011/Ribociclib = compound: CN(C)C(=O)c1cc2cnc(Nc3ccc(N4CCNCC4)cn3)nc2n1C1CCCC1 [LEE011/Ribociclib]
Rucaparib = compound: CNCc1ccc(-c2[nH]c3cc(F)cc4c3c2CCNC4=O)cc1 [Rucaparib]
Cediranib/AZD2171 = compound: COc1cc2c(Oc3ccc4[nH]c(C)cc4c3F)ncnc2cc1OCCCN1CCCC1 [Cediranib/AZD2171]
BVD523 = compound: CC(C)Nc1cc(-c2c[nH]c(C(=O)N[C@H](CO)c3cccc(Cl)c3)c2)c(Cl)cn1 [BVD523]
[6] = compound: CCc1cnn2c(NCc3ccc[n+]([O-])c3)cc(N3CCCC[C@H]3CCO)nc12
THZ-P1-2 = compound: CN(C)C/C=C/C(=O)NC1=CC=C(C=C1)C(=O)NC2=CC=CC(=C2)NC3=NC=NC(=C3)C4=CNC5=CC=CC=C54 [THZ-P1-2]
THZ1 = compound: CN(C)C/C=C/C(=O)Nc1ccc(C(=O)Nc2cccc(Nc3ncc(Cl)c(-c4c[nH]c5ccccc45)n3)c2)cc1 [THZ1]
[7] = compound: CCCCOc1c(C(=O)c2c(F)cc(C)cc2F)c[nH]c2nncc1-2
Vorinostat = compound: O=C(CCCCCCC(=O)Nc1ccccc1)NO [Vorinostat]
Cabozantinib = compound: COc1cc2nccc(Oc3ccc(NC(=O)C4(C(=O)Nc5ccc(F)cc5)CC4)cc3)c2cc1OC [Cabozantinib]
[8] = compound: CO[C@@H](C)Cn1c(=O)n(C)c2cnc3ccc(-c4cncc(C(C)(C)O)c4)cc3c21
Tivantinib/ARQ197 = compound: O=C1NC(=O)[C@@H](c2cn3c4c(cccc24)CCC3)[C@@H]1c1c[nH]c2ccccc12 [Tivantinib/ARQ197]
INK128/MLN0128 = compound: CC(C)n1nc(-c2ccc3oc(N)nc3c2)c2c(N)ncnc21 [INK128/MLN0128]
Torin2 = compound: C1=CC(=CC(=C1)N2C(=O)C=CC3=CN=C4C=CC(=CC4=C32)C5=CN=C(C=C5)N)C(F)(F)F [Torin2]
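Further: breast cancer and non-malignant breast epithelial cell lines, Deep Dye Drop or Dye Drop imaging, nine half-log doses, GR normalized to time-zero plates and DMSO-only controls.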

Cell Line	GR50, 72 h (Buparlisib/NVP-BKM120) [µM]	GR50, 72 h (R0-3306) [µM]	GR50, 72 h (Neratinib/HKI272) [µM]	GR50, 72 h (senexin b) [µM]	GR50, 72 h (AZD2014) [µM]	GR50, 72 h (Saracatinib/AZD0530) [µM]	GR50, 72 h (BSJ-03-123) [µM]	GR50, 72 h (Alpelisib/BYL719) [µM]	GR50, 72 h (AZD1775) [µM]	GR50, 72 h [1] [µM]	GR50, 72 h (Dasatinib) [µM]	GR50, 72 h (Ceritinib/LDK378) [µM]	GR50, 72 h [2] [µM]	GR50, 72 h (SHP099) [µM]	GR50, 72 h (AZD5363) [µM]	GR50, 72 h (Pictilisib/GDC0941) [µM]	GR50, 72 h [3] [µM]	GR50, 72 h (AZD7762) [µM]	GR50, 72 h (Volasertib/BI6727) [µM]	GR50, 72 h [4] [µM]	GR50, 72 h [5] [µM]	GR50, 72 h (LEE011/Ribociclib) [µM]	GR50, 72 h (Rucaparib) [µM]	GR50, 72 h (Cediranib/AZD2171) [µM]	GR50, 72 h (BVD523) [µM]	GR50, 72 h [6] [µM]	GR50, 72 h (THZ-P1-2) [µM]	GR50, 72 h (THZ1) [µM]	GR50, 72 h [7] [µM]	GR50, 72 h (Vorinostat) [µM]	GR50, 72 h (Cabozantinib) [µM]	GR50, 72 h [8] [µM]	GR50, 72 h (Tivantinib/ARQ197) [µM]	GR50, 72 h (INK128/MLN0128) [µM]	GR50, 72 h (Torin2) [µM]
T47D	0.248	7.12	0.423	1.28	< 0.001	3.95	0.00165	0.153	5.09	0.00463	> 10	1.56	3.75	> 10	0.0138	0.155	0.0275	2.37	0.0315	> 10	0.48	0.0057	> 10	4.1	3.63	0.0199	2.22	0.0293	0.0149	1.83	7.88	< 0.001	0.346	0.00526	0.00602
EFM19	0.706	6.14	> 3.16	> 10	0.00131	3.5	1.23	0.282	3.9	0.0156	0.0184	5.52	> 10	> 10	1.63	0.23	0.525	1.48	0.0101	> 10	2.18	1.71	> 10	> 10	> 10	0.0283	6.33	0.383	0.119	2.66	> 10	0.00381	0.658	0.00896	0.0114
AU565	0.106	0.478	0.00121	> 10	0.00361	4.82	1.21	0.27	0.216	0.00339	5.35	3.15	9.42	> 10	5.83	0.067	0.165	0.805	0.00381	> 10	7.64	0.663	> 10	> 10	> 10	0.00743	5.22	0.0187	0.142	1.07	9.13	0.00478	0.215	0.00529	0.00547
HCC38	1.27	7.29	3.15	> 10	0.452	> 10	0.0453	> 10	0.00378	0.00325	5.69	1.83	> 10	> 10	> 10	6.55	0.0597	0.00948	0.00822	> 10	> 10	0.537	> 10	1.59	4.75	0.0126	4.23	0.0239	0.00391	0.96	7.6	0.00435	0.309	0.0191	0.0105
184A1	1.52	2.78	0.0293	> 10	0.00164	4.62	0.00892	7.72	0.674	0.00198	0.756	1	> 10	6.56	> 10	1.3	0.0897	2.62	0.0124	3.65	> 10	0.285	> 10	7.6	0.00782	0.0086	1.72	0.00774	< 0.001	2.52	8.43	0.00147	0.0644	0.00892	0.0106
BT20	0.638	5.2	1.27	2.3	0.146	4.37	0.386	2.03	1.9	0.00274	0.68	1.53	> 10	> 10	2	0.904	0.0435	1.1	0.00563	> 10	> 10	0.359	> 10	5.69	> 10	0.0185	6.01	0.499	0.002	2.22	5.35	0.00613	0.473	0.0129	0.0089
CAL120	0.702	8.5	0.585	> 10	0.184	> 10	5.27	> 10	0.197	0.00365	0.0496	0.799	> 10	> 10	> 10	2.07	> 3.16	0.156	0.00185	> 10	> 10	> 10	> 10	1.04	9.62	0.00989	6.25	0.0579	2.2	1.35	7.34	0.00177	0.251	0.0115	0.0105
HCC1143	0.725	1.66	0.672	> 10	0.413	3.03	1.87	9.88	0.703	0.00523	0.139	1.45	> 10	> 10	> 10	0.978	0.277	0.0557	0.00459	> 10	> 10	3.65	> 10	3.73	1.74	0.0151	5.01	0.0265	0.00177	0.91	> 10	0.286	0.278	0.0405	0.0447
MCF7	0.187	6.26	1.26	> 10	< 0.001	0.577	1.42	0.585	0.0111	0.00197	0.0694	0.344	> 10	> 10	> 10	0.13	0.075	0.0414	0.00287	> 10	3.23	0.185	> 10	5.7	3.8	0.00831	3.65	0.0224	0.00767	0.542	4.82	< 0.001	0.151	0.00298	0.00456
HTERT_HME1	1.15	4.01	0.151	> 10	0.0169	7.23	0.366	6.04	0.302	0.0011	0.183	0.822	5.4	> 10	> 10	2.8	0.222	0.259	0.0172	0.899	> 10	1.2	> 10	7.57	0.213	0.0121	4.1	0.00442	0.0012	3.02	3.24	0.00274	0.0344	0.0335	0.0253
CAMA1	1.01	4.36	2.83	1.09	< 0.001	> 10	0.00879	> 10	5.45	0.00356	> 10	1.8	> 10	> 10	0.0498	1.55	0.0742	0.253	0.00782	> 10	> 10	0.0104	> 10	5.02	2.73	0.0146	3.39	0.0336	< 0.001	0.884	8.39	< 0.001	0.276	0.00961	0.00918
PDXHCI002	1.44	6.43	0.162	> 10	9.69	0.0805	1.64	> 10	0.23	0.00689	0.509	0.338	> 10	> 10	> 10	2.25	0.127	0.0705	0.00369	> 10	> 10	> 10	> 10	1.47	4.27	0.0122	> 10	0.0115	3.29	0.282	7.21	1.82	0.238	0.169	0.123
PDX1258	1.36	5.5	1.1	> 10	0.401	0.722	4.91	> 10	0.0187	0.00294	0.0216	2.08	> 10	> 10	3.52	1.7	> 3.16	0.0152	0.00743	> 10	> 10	> 10	> 10	4.71	4.62	0.0116	0.492	0.0148	< 0.001	1.57	8.59	0.0944	0.397	0.044	0.0356
